According to US12577228B2, “Dihydrocyclopenta-isoquinoline-sulfonamide derivatives compounds” (UCB Biopharma SRL, priority 2019, dated 2026):
pIC50: −log10 of the molar value.

Biological target: T1, IgE-Tb / soluble IgE receptor FcεRIα with a Y131A mutation (Homo sapiens, UniProt P01854, N146Q/N252Q)
T1 construct: fused on or other part: Terbium chelate (LanthaScreen amine-reactive) on IgE-Fc; Alexa Fluor 488 hydrazide on the oxidised glycans of sFcεRIα; Both are labels and no part of the key
Test: in vitro FRET assay: binding of IgE-Tb to receptor FcεRIα-Y131A-AF488 and its inhibition by compounds
Conditions: 5 nM IgE-Tb, 25 nM FcεRIα-Y131A-AF488, 2 hours at room temperature; read-out: FRET IC50 range

T1 sequence (P01854 104-427 N146Q/N252Q): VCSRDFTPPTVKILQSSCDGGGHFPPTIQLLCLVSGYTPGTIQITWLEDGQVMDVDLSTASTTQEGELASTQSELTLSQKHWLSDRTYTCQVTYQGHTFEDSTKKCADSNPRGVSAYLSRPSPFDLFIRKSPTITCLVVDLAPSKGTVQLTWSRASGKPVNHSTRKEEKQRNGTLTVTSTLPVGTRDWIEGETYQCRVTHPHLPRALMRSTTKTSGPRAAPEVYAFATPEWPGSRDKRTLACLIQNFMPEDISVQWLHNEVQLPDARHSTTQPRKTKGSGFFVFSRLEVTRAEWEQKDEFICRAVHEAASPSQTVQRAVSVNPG
T1 sequence (P12319 26-201 Y156A partner): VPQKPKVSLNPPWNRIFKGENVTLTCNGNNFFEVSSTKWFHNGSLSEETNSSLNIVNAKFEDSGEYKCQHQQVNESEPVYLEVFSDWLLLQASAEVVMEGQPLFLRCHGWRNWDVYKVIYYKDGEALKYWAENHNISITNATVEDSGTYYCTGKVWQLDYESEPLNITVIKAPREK

| SMILES | pIC50 |
| --- | --- |
| CC(C)CNS(=O)(=O)N1Cc2cc3cnc(C4CC4)cc3c(S(=O)(=O)NCC(C)(C)F)c2C1 [Example 99, 7-cyclopropyl-9-N-(2-fluoro-2-methylpropyl)-2-N-(2-methylpropyl)-1,3-dihydropyrrolo[3,4-g]isoquinoline-2,9-disulfonamide] | 5.70 to 7.00 |
| CCNC(=O)N1Cc2cc3cnc(C4CC4)cc3c(S(=O)(=O)NCC(C)C)c2C1 [Example 100, 7-cyclopropyl-N-ethyl-9-(2-methylpropylsulfamoyl)-1,3-dihydropyrrolo[3,4-g]isoquinoline-2-carboxamide] | 5.70 to 7.00 |
| CC(C)(F)CNS(=O)(=O)c1c2c(cc3cnc(C4CC4)cc13)CN(Cc1ccn[nH]1)C2 [Example 102, 7-cyclopropyl-N-(2-fluoro-2-methylpropyl)-2-(1H-pyrazol-5-ylmethyl)-1,3-dihydropyrrolo[3,4-g]isoquinoline-9-sulfonamide] | 5.70 to 7.00 |
| CC(C)CNS(=O)(=O)c1c2c(cc3cnc(C4CC4)cc13)CC(Nc1ccnnc1)C2 (stereo not shown) [Example 103, 3-cyclopropyl-N-isobutyl-7-(pyridazin-4-ylamino)-7,8-dihydro-6H-cyclopenta[g]isoquinoline-5-sulfonamide; formic acid] | 7.30 to 8.00 |
| Cn1nccc1C(=O)NC1Cc2cc3cnc(C4CC4)cc3c(S(=O)(=O)NCC(C)(C)F)c2C1 (stereo not shown) [Example 104, N-[3-cyclopropyl-5-[(2-fluoro-2-methylpropyl)sulfamoyl]-7,8-dihydro-6H-cyclopenta[g]isoquinolin-7-yl]-2-methylpyrazole-3-carboxamide] | 7.00 to 7.30 |
| CC(C)(F)CNS(=O)(=O)c1c2c(cc3cnc(C4CC4)cc13)C[C@@H](Nc1cncc3nn(CCO)cc13)C2 [Example 106, (7R)-3-cyclopropyl-N-(2-fluoro-2-methylpropyl)-7-[[2-(2-hydroxyethyl)pyrazolo[3,4-c]pyridin-4-yl]amino]-7,8-dihydro-6H-cyclopenta[g]isoquinoline-5-sulfonamide] | 7.30 to 8.00 |
| CC(C)(F)CNS(=O)(=O)c1c2c(cc3cnc(C4CC4)cc13)CC1CC21 (stereo not shown) [Example 107, 13-cyclopropyl-N-(2-fluoro-2-methylpropyl)-12-azatetracyclo[8.4.0.03,8.04,6]tetradeca-1 (10),2,8,11,13-pentaene-2-sulfonamide] | 5.70 to 7.00 |
| Cn1ccc(-c2ccc(N[C@@H]3Cc4cc5cnc(C6CC6)cc5c(S(=O)(=O)NCC(C)(C)F)c4C3)cn2)n1 [Example 108, (7R)-3-cyclopropyl-N-(2-fluoro-2-methylpropyl)-7-[[6-(1-methylpyrazol-3-yl)pyridin-3-yl]amino]-7,8-dihydro-6H-cyclopenta[g]isoquinoline-5-sulfonamide] | 7.30 to 8.00 |
| CC(C)(F)CNS(=O)(=O)c1c2c(cc3cnc(C4CC4)cc13)CC(Nc1cncc3nccn13)C2 (stereo not shown) [Example 109, 3-cyclopropyl-N-(2-fluoro-2-methylpropyl)-7-(imidazo[1,2-a]pyrazin-5-ylamino)-7,8-dihydro-6H-cyclopenta[g]isoquinoline-5-sulfonamide] | 7.30 to 8.00 |
| CC(C)(F)CNS(=O)(=O)c1c2c(cc3cnc(C4CC4)cc13)CC(c1cccnc1)C2 (stereo not shown) [Example 110, 3-cyclopropyl-N-(2-fluoro-2-methylpropyl)-7-pyridin-3-yl-7,8-dihydro-6H-cyclopenta[g]isoquinoline-5-sulfonamide] | 5.70 to 7.00 |
| O=c1cc(C2Cc3cc4cnc(C5CC5)cc4c(S(=O)(=O)NC4CC(F)(F)C4)c3C2)[nH]n1-c1cccnc1 (stereo not shown) [Example 111, 3-cyclopropyl-N-(3,3-difluorocyclobutyl)-7-(3-oxo-2-pyridin-3-yl-1H-pyrazol-5-yl)-7,8-dihydro-6H-cyclopenta[g]isoquinoline-5-sulfonamide] | 5.70 to 7.00 |
| Cn1nc(O)cc1NC1Cc2cc3cnc(C4CC4)cc3c(S(=O)(=O)NCC(C)(C)F)c2C1 (stereo not shown) [Example 112, 3-cyclopropyl-N-(2-fluoro-2-methylpropyl)-7-[(5-hydroxy-2-methylpyrazol-3-yl)amino]-7,8-dihydro-6H-cyclopenta[g]isoquinoline-5-sulfonamide] | 5.70 to 7.00 |
| CC(C)(C)CNC(=O)C1Cc2cc3nnc(C4CC4)cc3c(S(=O)(=O)NCC(C)(C)F)c2C1 (stereo not shown) [Example 113, 3-cyclopropyl-N-(2,2-dimethylpropyl)-5-[(2-fluoro-2-methylpropyl)sulfamoyl]-7,8-dihydro-6H-cyclopenta[g]cinnoline-7-carboxamide] | 5.70 to 7.00 |
| CC(=O)c1ccc(N[C@@H]2Cc3cc4cnc(C5CC5)cc4c(S(=O)(=O)NCC(C)(C)F)c3C2)cc1 [Example 114, (7R)-7-(4-acetylanilino)-3-cyclopropyl-N-(2-fluoro-2-methylpropyl)-7,8-dihydro-6H-cyclopenta[g]isoquinoline-5-sulfonamide] | 7.00 to 7.30 |
| CC(C)(F)CNS(=O)(=O)c1c2c(cc3cnc(C4CC4)cc13)C[C@@H](Nc1ccc(C(F)F)nc1)C2 [Example 118, (7R)-3-cyclopropyl-7-[[6-(difluoromethyl)pyridin-3-yl]amino]-N-(2-fluoro-2-methylpropyl)-7,8-dihydro-6H-cyclopenta[g]isoquinoline-5-sulfonamide] | 7.30 to 8.00 |
| CC(C)(F)CNS(=O)(=O)c1c2c(cc3cnc(C4CC4)cc13)C[C@@H](Nc1cnc(Cl)cc1OCC1CC1)C2 [Example 119, (7R)-7-[[6-chloro-4-(cyclopropylmethoxy)pyridin-3-yl]amino]-3-cyclopropyl-N-(2-fluoro-2-methylpropyl)-7,8-dihydro-6H-cyclopenta[g]isoquinoline-5-sulfonamide] | 7.00 to 7.30 |
| CC(C)(F)CNS(=O)(=O)c1c2c(cc3cnc(C4CC4)cc13)C[C@@H](Nc1cncnc1OC1CCOCC1)C2 [Example 120, (7R)-3-cyclopropyl-N-(2-fluoro-2-methylpropyl)-7-[[4-(oxan-4-yloxy)pyrimidin-5-yl]amino]-7,8-dihydro-6H-cyclopenta[g]isoquinoline-5-sulfonamide] | 7.00 to 7.30 |
| CC(=O)Nc1cncc(NC2Cc3cc4cnc(C5CC5)cc4c(S(=O)(=O)NCC(C)(C)F)c3C2)c1 (stereo not shown) [Example 121, N-[5-[[3-cyclopropyl-5-[(2-fluoro-2-methylpropyl)sulfamoyl]-7,8-dihydro-6H-cyclopenta[g]isoquinolin-7-yl]amino]pyridin-3-yl]acetamide] | 7.30 to 8.00 |
| CC(C)(F)CNS(=O)(=O)c1c2c(cc3cnc(C4CC4)cc13)CC(Nc1cncc(C#N)c1)C2 (stereo not shown) [Example 122, 7-[(5-cyanopyridin-3-yl)amino]-3-cyclopropyl-N-(2-fluoro-2-methylpropyl)-7,8-dihydro-6H-cyclopenta[g]isoquinoline-5-sulfonamide] | 5.70 to 7.00 |
| CC(C)(F)CNS(=O)(=O)c1c2c(cc3cnc(C4CC4)cc13)CC(Nc1cncc(S(C)(=O)=O)c1)C2 (stereo not shown) [Example 123, 3-cyclopropyl-N-(2-fluoro-2-methylpropyl)-7-[(5-methylsulfonylpyridin-3-yl)amino]-7,8-dihydro-6H-cyclopenta[g]isoquinoline-5-sulfonamide] | 7.30 to 8.00 |
| CC(C)(F)CNS(=O)(=O)c1c2c(cc3cnc(C4CC4)cc13)C[C@@H](Nc1cnc(-c3nnn[nH]3)nc1)C2 [Example 124, (7R)-3-cyclopropyl-N-(2-fluoro-2-methylpropyl)-7-[[2-(1H-tetrazol-5-yl)pyrimidin-5-yl]amino]-7,8-dihydro-6H-cyclopenta[g]isoquinoline-5-sulfonamide] | 7.30 to 8.00 |
| Cn1nnc(-c2ccc(N[C@@H]3Cc4cc5cnc(C6CC6)cc5c(S(=O)(=O)NCC(C)(C)F)c4C3)cc2)n1 [Example 125, (7R)-3-cyclopropyl-N-(2-fluoro-2-methylpropyl)-7-[4-(2-methyltetrazol-5-yl)anilino]-7,8-dihydro-6H-cyclopenta[g]isoquinoline-5-sulfonamide] | 7.00 to 7.30 |
| CC(C)(F)CNS(=O)(=O)c1c2c(cc3cnc(C4CC4)cc13)C[C@@H](Nc1cnc(Cl)cc1-c1nnn[nH]1)C2 [Example 126, (7R)-7-[[6-chloro-4-(1H-tetrazol-5-yl)pyridin-3-yl]amino]-3-cyclopropyl-N-(2-fluoro-2-methylpropyl)-7,8-dihydro-6H-cyclopenta[g]isoquinoline-5-sulfonamide] | 5.70 to 7.00 |
| CC(C)(F)CNS(=O)(=O)c1c2c(cc3cnc(C4CC4)cc13)C[C@@H](NC1=CC(=O)COC1)C2 [Example 127, (7R)-3-cyclopropyl-N-(2-fluoro-2-methylpropyl)-7-[(5-oxo-2H-pyran-3-yl)amino]-7,8-dihydro-6H-cyclopenta[g]isoquinoline-5-sulfonamide] | 5.70 to 7.00 |
| Cn1ccc(Oc2ccncc2N[C@@H]2Cc3cc4cnc(C5CC5)cc4c(S(=O)(=O)NCC(C)(C)F)c3C2)n1 [Example 128, (7R)-3-cyclopropyl-N-(2-fluoro-2-methylpropyl)-7-[[4-(1-methylpyrazol-3-yl)oxypyridin-3-yl]amino]-7,8-dihydro-6H-cyclopenta[g]isoquinoline-5-sulfonamide] | 7.00 to 7.30 |
| Cc1nnc(-c2ncc(N[C@@H]3Cc4cc5cnc(C6CC6)cc5c(S(=O)(=O)NCC(C)(C)F)c4C3)cn2)o1 [Example 129, (7R)-3-cyclopropyl-N-(2-fluoro-2-methylpropyl)-7-[[2-(5-methyl-1,3,4-oxadiazol-2-yl)pyrimidin-5-yl]amino]-7,8-dihydro-6H-cyclopenta[g]isoquinoline-5-sulfonamide] | 7.30 to 8.00 |
| CC(C)(F)CNS(=O)(=O)c1c2c(cc3cnc(C4CC4)cc13)C[C@@H](NC(=O)c1c[nH]c3ccccc13)C2 [Example 130, N-[(7R)-3-cyclopropyl-5-[(2-fluoro-2-methylpropyl)sulfamoyl]-7,8-dihydro-6H-cyclopenta[g]isoquinolin-7-yl]-1H-indole-3-carboxamide] | 7.30 to 8.00 |
| CC(C)(F)CNS(=O)(=O)c1c2c(cc3cnc(C4CC4)cc13)C[C@@H](NC(=O)c1c[nH]c3ccc(F)cc13)C2 [Example 131, N-[(7R)-3-cyclopropyl-5-[(2-fluoro-2-methylpropyl)sulfamoyl]-7,8-dihydro-6H-cyclopenta[g]isoquinolin-7-yl]-5-fluoro-1H-indole-3-carboxamide] | 7.30 to 8.00 |
